Read-outs that look alike come from different tables or passages of the source.
Experiments:
[1] = JACKPOT2 multiple-ascending-dose plasma PK (once daily, 14 days); assay type: in vivo, human; conditions: for Cmax / AUC(0-t) / Tmax: human, plasma, oral; for Cmax / AUC(0-t): geometric mean (CV%); for AUC(0-t): read-out: AUC0-24h; for Tmax: median (min, max)
Experimental: A total of 42 and 24 healthy participants were enrolled in part A and part B, respectively. In part A, a total of 30 participants were randomized into 5 SAD cohorts (n = 6 per cohort) and received a single dose of golidocitinib at different dose levels or a matching placebo in a 4:2 ratio. In the food effect cohort, a total of 12 participants were enrolled and received the study drug under fasted or fed conditions, with a sequential design. The 50 mg dose was selected based on available safety data after the completion of the SAD cohorts, and also on the outcomes from PK/PD modeling for potential efficacious dose for autoimmune disease. On Day 1, participants took a single dose of golidocitinib under fast condition. After a 14-day wash-out period, on Day 15, participants received another single dose of golidocitinib immediately after a standard high-fat meal. Food recipes and contents are consistent with that described in FDA Guidance for Food-Effect Bioavailability studies ([10]). For the fed condition, keeping fasted for at least 10 hours, participants started ingestion of high-fat meal 30 minutes prior to administration of golidocitinib. They had to finish the meal within 30 minutes or less, and no food was allowed for at least 4 hours post-dose. In part B, a total of 24 participants were randomized into 3 MAD cohorts, with 8 in each cohort (active:placebo = 6:2). In these cohorts, participants received golidocitinib at different dose levels or placebo once daily dosing for 14 days. Dose escalation was based on available PK and safety data in the previous cohorts.
In the SAD cohorts, serial blood samples were obtained on Day 1 at pre-dose, and at 0.5, 1, 1.5, 2, 3, 4, 6, 10, 14, 24 (Day 2), 48 (Day 3), 72 (Day 4), 120 (Day 6), 168 (Day 8) and 216 (Day 10) hours post-dose for plasma PK analysis. A similar sampling schedule was undertaken for the MAD cohorts on Day 1 and Day 14, with additional trough samples obtained on Days 5, Day 8, and Day 11. In the MAD cohorts, urine samples were collected on Day 14 during the collection intervals of 0-4, 4-10, and 10-24 hours following the last dose for urine PK analysis. Plasma and urine samples were analyzed by Frontage Laboratories Inc. (New Jersey, USA) using a validated LC/MS/MS bioanalytical method to determine golidocitinib concentrations. Cross validation in plasma was successful between Frontage Laboratories Inc. (New Jersey, USA) and Frontage Laboratories Inc. (Shanghai) using clinical samples and spiked quality control samples.
Non-compartmental PK analysis for golidocitinib concentrations was performed using Phoenix WinNonlin (Certara USA Inc., version 8.1).
Dose proportionality was concluded if the 90% confidence interval for the ratio of dose-normalized, geometric mean values (Rdnm) was contained completely within the range of 0.8 - 1.25 ([11], [12]).

[2] = Safety (TEAEs), JACKPOT2 MAD cohorts; assay type: in vivo, human; conditions: n = 6
Source text: Safety assessments included monitoring of adverse events/serious adverse events, clinical safety laboratory tests (clinical chemistry, hematology, coagulation, and urinalysis tests), 12-lead ECG, vital signs (blood pressure, pulse rate, and respiratory rate), and pulmonary function. All adverse events were coded using the Medical Dictionary for Regulatory Activities (MedDRA), version 22.0. The CTCAE 5.0 was used to define the intensity of AEs.

Permeability in vitro = assay type: in vitro ADME
[3] = 25 mg, 25 mg once daily, Day 14
[4] = 50 mg, 50 mg once daily, Day 14
[5] = 100 mg, 100 mg once daily, Day 1
[6] = 100 mg, 100 mg once daily, Day 14

Work on `COc1nn(C)cc1Nc1nccc(-c2c[nH]c3c(NC(=O)[C@@H](C)N4CCN(C)CC4)cccc23)n1` [golidocitinib, (2R)-N-[3-[2-[(3-Methoxy-1-methyl-pyrazol-4-yl)amino]pyrimidin-4-yl]-1H-indol-7-yl]-2-(4-methylpiperazin-1-yl)propenamide] yielded a Cmax ([1]; 25 mg, 25 mg once daily, Day 1) of 33.8 ng/mL, an AUC(0-t) ([1]; 25 mg, 25 mg once daily, Day 1) of 536 ng·h/mL and a Tmax ([1]; 25 mg, 25 mg once daily, Day 1) of 6 h. For the same compound, the Cmax [1, 3] was 83.9 ng/mL, the AUC(0-t) [1, 3] was 1530 ng·h/mL and the Tmax [1, 3] was 6 h. It also gave a Cmax ([1]; 50 mg, 50 mg once daily, Day 1) of 62.1 ng/mL, an AUC(0-t) ([1]; 50 mg, 50 mg once daily, Day 1) of 1020 ng·h/mL and a Tmax ([1]; 50 mg, 50 mg once daily, Day 1) of 6 h. The Cmax [1, 4] was 169 ng/mL, the AUC(0-t) [1, 4] was 3190 ng·h/mL and the Tmax [1, 4] was 6 h. For the same compound, the Cmax [1, 5] was 149 ng/mL, the AUC(0-t) [1, 5] was 2490 ng·h/mL and the Tmax [1, 5] was 4 h. The Cmax [1, 6] was 375 ng/mL, the AUC(0-t) [1, 6] was 7190 ng·h/mL and the Tmax [1, 6] was 6 h. For the same compound, the “increase of Cmax and AUC0-24hr on day 14 compared to day 1 (accumulation)” value ([1]; multiple once-daily dosing) was 2-3 folds, the “time to steady-state plasma concentrations” value ([1]; once-daily dosing) was no more than 14 days and the Abdominal pain upper ([2]; 25 mg once daily 14 days) was 0 n (%). For the same compound, the “Blood and Lymphatic Disorders” value ([2]; 25 mg once daily 14 days) was 1 (16.7%) n (%), the Constipation ([2]; 25 mg once daily 14 days) was 1 (16.7%) n (%) and the Dry throat ([2]; 25 mg once daily 14 days) was 0 n (%). For the same compound, the “Gastrointestinal disorders” value ([2]; 25 mg once daily 14 days) was 1 (16.7%) n (%), the Headache ([2]; 25 mg once daily 14 days) was 0 n (%) and the “Injury, poisoning and procedural complications” value ([2]; 25 mg once daily 14 days) was 0 n (%). The Leukopenia ([2]; 25 mg once daily 14 days) was 0 n (%), the Nausea ([2]; 25 mg once daily 14 days) was 0 n (%) and the “Nervous System Disorders” value ([2]; 25 mg once daily 14 days) was 0 n (%). For the same compound, the Neutropenia ([2]; 25 mg once daily 14 days) was 1 (16.7%) n (%), the “Respiratory, Thoracic and Mediastinal Disorders” value ([2]; 25 mg once daily 14 days) was 0 n (%) and the Reticulocytopenia ([2]; 25 mg once daily 14 days) was 0 n (%). For the same compound, the “Skin Laceration” value ([2]; 25 mg once daily 14 days) was 0 n (%), the “Subjects with at least one TEAE” value ([2]; 25 mg once daily 14 days) was 2 (33.3%) n (%) and the Abdominal pain upper ([2]; 50 mg once daily 14 days) was 1 (16.7%) n (%). For the same compound, the “Blood and Lymphatic Disorders” value ([2]; 50 mg once daily 14 days) was 0 n (%), the Constipation ([2]; 50 mg once daily 14 days) was 1 (16.7%) n (%) and the Dry throat ([2]; 50 mg once daily 14 days) was 0 n (%). For the same compound, the “Gastrointestinal disorders” value ([2]; 50 mg once daily 14 days) was 1 (16.7%) n (%), the Headache ([2]; 50 mg once daily 14 days) was 1 (16.7%) n (%) and the “Injury, poisoning and procedural complications” value ([2]; 50 mg once daily 14 days) was 0 n (%). For the same compound, the Leukopenia ([2]; 50 mg once daily 14 days) was 0 n (%), the Nausea ([2]; 50 mg once daily 14 days) was 1 (16.7%) n (%) and the “Nervous System Disorders” value ([2]; 50 mg once daily 14 days) was 1 (16.7%) n (%). The Neutropenia ([2]; 50 mg once daily 14 days) was 0 n (%), the “Respiratory, Thoracic and Mediastinal Disorders” value ([2]; 50 mg once daily 14 days) was 0 n (%) and the Reticulocytopenia ([2]; 50 mg once daily 14 days) was 0 n (%). For the same compound, the “Skin Laceration” value ([2]; 50 mg once daily 14 days) was 0 n (%), the “Subjects with at least one TEAE” value ([2]; 50 mg once daily 14 days) was 1 (16.7%) n (%) and the Abdominal pain upper ([2]; 100 mg once daily 14 days) was 0 n (%). The “Blood and Lymphatic Disorders” value ([2]; 100 mg once daily 14 days) was 3 (50.0%) n (%), the Constipation ([2]; 100 mg once daily 14 days) was 0 n (%) and the Dry throat ([2]; 100 mg once daily 14 days) was 0 n (%). The “Gastrointestinal disorders” value ([2]; 100 mg once daily 14 days) was 0 n (%), the Headache ([2]; 100 mg once daily 14 days) was 1 (16.7%) n (%) and the “Injury, poisoning and procedural complications” value ([2]; 100 mg once daily 14 days) was 0 n (%). For the same compound, the Leukopenia ([2]; 100 mg once daily 14 days) was 2 (33.3%) n (%), the Nausea ([2]; 100 mg once daily 14 days) was 0 n (%) and the “Nervous System Disorders” value ([2]; 100 mg once daily 14 days) was 1 (16.7%) n (%). The Neutropenia ([2]; 100 mg once daily 14 days) was 3 (50.0%) n (%), the “Respiratory, Thoracic and Mediastinal Disorders” value ([2]; 100 mg once daily 14 days) was 0 n (%) and the Reticulocytopenia ([2]; 100 mg once daily 14 days) was 1 (16.7%) n (%). For the same compound, the “Skin Laceration” value ([2]; 100 mg once daily 14 days) was 0 n (%), the “Subjects with at least one TEAE” value ([2]; 100 mg once daily 14 days) was 3 (50.0%) n (%) and the permeability (Permeability in vitro) was “high permeability”.
